Legend:
Echinochloa esculenta [1] = test: Herbicidal activity against Echinochloa esculenta assessed as inhibition of seed germination at 1000 nM after 5 days relative to control; type: functional; settings: 120 h
Oryza sativa [2] = test: Herbicidal activity against Oryza sativa (rice) assessed as inhibition of seed germination at > 90 nM after 7 days relative to control; type: functional, organism-based; settings: 168 h
Echinochloa esculenta [3] = test: Herbicidal activity against Echinochloa esculenta assessed as inhibition of seed germination after 5 days relative to control; type: functional, organism-based; settings: 120 h
Echinochloa esculenta [4] = test: Herbicidal activity against Echinochloa esculenta assessed as inhibition of seed germination at 10 nM after 5 days relative to control; type: functional; settings: 120 h
Echinochloa esculenta [5] = test: Herbicidal activity against Echinochloa esculenta assessed as inhibition of seed germination at 1 nM after 5 days relative to control; type: functional; settings: 120 h
Oryza sativa [6] = test: Herbicidal activity against Oryza sativa (rice) assessed as inhibition of seed germination after 7 days relative to control; type: functional, organism-based; settings: 168 h
Echinochloa esculenta [7] = test: Herbicidal activity against Echinochloa esculenta assessed as inhibition of seed germination at 100 nM after 5 days relative to control; type: functional; settings: 120 h
Echinochloa esculenta [8] = test: Herbicidal activity against Echinochloa esculenta assessed as inhibition of seed germination at 0.1 nM after 5 days relative to control; type: functional; settings: 120 h

| SMILES | inhibition at 1 µM (Echinochloa esculenta [1]) | IC50 (Oryza sativa [2]) | IC50 (Echinochloa esculenta [3]) | inhibition at 0.01 µM (Echinochloa esculenta [4]) | inhibition at 0.001 µM (Echinochloa esculenta [5]) | IC50 (Oryza sativa [6]) | inhibition at 0.1 µM (Echinochloa esculenta [7]) | inhibition at 0.0001 µM (Echinochloa esculenta [8]) |
| --- | --- | --- | --- | --- | --- | --- | --- | --- |
| O=C1C(C(O)c2ccc3c(c2)OCCO3)CCCN1Cc1ccccc1 (mixture of isomers) | > 90% | 10 nM | 8.8 nM | > 90% | < 49% | > 90 nM | > 90% | – |
| O=C1C(C(O)c2ccc3c(c2)OCCO3)CCCN1C/C=C/c1ccccc1 (mixture of isomers) | > 90% | 25 nM | 1.4 nM | > 90% | < 49% | > 90 nM | > 90% | < 49% |
| O=C1C(C(O)c2ccc3c(c2)OCCO3)CCCN1/C=C/c1ccccc1 (mixture of isomers) | > 90% | – | – | 50% | < 49% | – | > 90% | < 49% |
| O=C1C(C(O)c2ccc3c(c2)OCCO3)CCCN1c1ccccc1 (mixture of isomers) | < 49% | – | – | < 49% | < 49% | – | < 49% | < 49% |
| C=CCN1CCCC(C(O)c2ccc3c(c2)OCCO3)C1=O (mixture of isomers) | 50% | – | – | < 49% | < 49% | – | < 49% | < 49% |
| O=C1NCCCC1C(O)c1ccc2c(c1)OCCO2 (mixture of isomers) | > 90% | – | – | < 49% | < 49% | – | < 49% | < 49% |
| O=C1[C@@H]([C@@H](O)c2ccc3c(c2)OCCO3)CCCN1Cc1ccccc1 (relative stereo) | – | 30 nM | 4.5 nM | – | – | > 90 nM | – | – |

— ChEMBL document CHEMBL3046544, “Inhibitory Activity of N-Substituted-2-piperidones with a 1, 4-Benzodioxan Ring on Germination of Barnyardgrass” (J Pestic Sci, 2001)
